The values that follow come from patent US9884806B2, “Cyclic vinylogous amides as bromodomain inhibitors” (ICAHN SCHOOL OF MEDICINE AT MOUNT SINAI, priority 2013, dated 2018).

Series [1] can be described thus: Human, rat, and mouse microsome stability assay. The series is classed as in vitro ADME. Conditions: Sprague-Dawley (rat), CD1 (mouse), pH 7.4, rat, and mouse liver microsomes, 0.5 μM compound, 0.25 mg/mL microsomal protein, 37° C., read-out: intrinsic clearance Clint. As for the experimental part:
Human, Rat, and Mouse Microsome Stability Assay
Human, rat, and mouse liver microsomal incubations were carried out at 37° C. with a final incubation volume of 135 μL. Human liver microsomes (mixed gender, Catalog No. H2610) were obtained from XenoTech. Rat liver microsomes (male Sprague-Dawley, Catalog No. 452501) were obtained from BD Gentest. Mouse liver microsomes (male CD1, Catalog No. 452701) were obtained from BD Gentest. Incubations were conducted using a test compound (initially dissolved in DMSO at […] concentration) concentration of 0.5 μM and 0.25 mg/mL microsomal protein in 50 mM phosphate buffer at pH 7.4. Time zero samples were prepared by transferring 13.5 μL of compound-microsomal mix to the quench plates containing 45 μL of quench solution made of 10 nM Buspirone (Sigma) or 50 nM Carbutamide (Princeton Bio) as internal standard in 1:1 methanol:acetonitrile. An aliquot of 1.5 μL Nicotinamide adenine dinucleotide phosphate reduced tetrasodium salt (NADPH) was also added to the time zero plates. The reaction was then initiated by the addition of 13.5 μL NADPH to the compound-microsomal mix. At each of the remaining time points (5, 10, 15, 20, 30, 45 and 60 min) 15 μL of incubation mixture was added to 45 μL of quench solution. Samples were centrifuged for 15-30 minutes at 3800 rpm. Samples were then pooled for 6 per group. An aliquot of 60 μL of supernatant was transferred to 96-well plate, and a 5 μL aliquot was injected and analyzed by LC-MS (Applied Biosystems API 5500 QTrap).

For series [2], the target named is T1, first bromodomain (BrD1) of human BRD4 (Homo sapiens, UniProt O60885).
T1 construct: the first bromodomain (BrD1) of human BRD4; poly-His (cleaved yes); made in house
The series is described as follows: Fluorescence anisotropy binding assay (competition with FITC-labeled MS417 probe). The note with it: FITC-MS417 probe 80 nM, PBS pH 7.4, 1 hour, 25° C., read-out: BRD4_1 IC50. An outline of the steps:
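BRD4 BrD1 (His tag removed by thrombin) at 0.25 to 1 μM competed against 80 nM FITC-labeled MS417 in PBS pH 7.4. Anisotropy read after 1 hour at 25° C. Ki derived from fitted IC50 by Nikolovska-Coleska-corrected Cheng-Prusoff equation, one-site competitive model.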

In the next series the target is T2, BRD4_2 (Homo sapiens, UniProt O60885).
T2 construct: contains two tandem bromodomains (BrD1 and BrD2)
Nature of the series: Fluorescence anisotropy binding assay (competition with FITC-labeled MS417 probe), BRD4_2. The note with it: FITC-MS417 probe 80 nM, PBS pH 7.4, 1 hour, 25° C.

Series [3] deals with IL-6 secretion in RAW264.7 cells. The series is described as follows: LPS-induced IL-6 secretion in murine macrophage RAW264.7 cells (ELISA). The series is classed as cell-based. Conditions: LPS 1 μg/ml, 24 hours, mouse IL-6 ELISA. As for the experimental part: LPS-Induced IL-6Secretion In Murine Macrophage Raw264.7 Cells RAW264.7 cells were cultivated in Dulbecco's modified Eagle medium (DMEM) (Hyclone, Logan, Utah) supplemented with 10% FBS (fetal bovine serum) (Hyclone, Logan, Utah) at 37° C. in a humidified atmosphere of 5% CO2. Cells in 96-well plates (0.1 ml, 3×10^5 cells/ml) were treated with the test compounds. After 30 min, all supernatants were removed and cells were treated with LPS (lipopolysaccharide) (1 μg/ml) (Sigma-Aldrich Chemical Co., St. Louis, Mo.) and compounds. After 24 hours, the supernatant was collected and mouse IL-6 protein level was measured using ELISA (enzyme-linked immunosorbent assay) (Thermo Scientific, Pittsburgh, Pa.). The compounds dissolved in DMSO were diluted with culture medium to concentrations from 0.28 to 50,000 nM. The final concentration of DMSO was adjusted to 0.05% (v/v). The assay was measured by an absorption reading at 570 nm using EnVison 2104 Multilabel Reader (PerkinElmer, Inc., Waltham, Mass.). Each experiment was performed at least in triplicate, and plotted using Prim, and an IC50 value was calculated.

In series [4] the test system is NO release in RAW264.7 cells. Nature of the series: LPS-stimulated nitric oxide (NO) release in murine macrophage RAW264.7 cells (Griess reaction). The series is classed as cell-based. Conditions: Mus musculus; RAW264.7 cells, LPS 1 μg/ml, 24 hours, nitrite by Griess reaction; read-out: IC50 in inhibition of LPS-induced NO release. As for the experimental part:
LPS-Stimulated Nitric Oxide (NO) Release in Murine Macrophage RAW264.7 Cells
RAW264.7 cells was cultivated in DMEM supplemented with 10% FBS at 37° C. in a humidified atmosphere of 5% CO2. Cells in 96-well plates (0.1 ml, 3×10^5 cells/ml) were treated with the test compounds. After 30 min, all supernatants were removed and cells were treated with LPS (1 μg/ml) and the test compounds. After 24 hours, the level of nitrite was measured using Griess reaction G2930 (Promega Corp., Madison, Wis.) [see Bredt and Snyder, Ann Rev Biochem 63, 175-195 (1994)]. The test compounds dissolved in DMSO were diluted with culture medium to concentrations from 0.28 to 50,000 nM. The final concentration of DMSO was adjusted to 0.05% (v/v). The nitrite production was measured by spectrophotometry at 520 nm using EnVison 2104 Multilabel Reader (PerkinElmer, Inc., Waltham, Mass.). Each experiment was performed at least in triplicate and plotted using Prism.

Series [5] relates to mRNA transcript levels of cytokines IL-6, IL-1β and TNFα in RAW264.7 cells. The series is described as follows: LPS-induced transcriptional activation of cytokines in murine macrophage cells (quantitative PCR). The series is classed as cell-based. Conditions: Mus musculus. As for the experimental part: LPS-Induced Transcriptional Activation of Cytokines in Murine Macrophage Cells RAW264.7 cells were cultivated with or without a treatment of the compounds as described above. Total RNA was isolated the cells using TRIzol reagent (Gibco, Grand Island, N.Y.) for homogenization. The concentration and integrity of RNA were determined by measuring absorbance at a 260 nm/280 nm ratio. Quantitative PCR was performed to determine the mRNA transcript levels of cytokines IL-6, IL-1β and TNFα with specific primers for these target genes. Each experiment was performed at least in triplicate, and plotted using Prim, and an IC50 value was calculated.

Series [6] concerns T-cell-transfer colitis model in Rag1−/− mice. Nature of the series: T-cell-transfer colitis study and histopathology. The class given is in vivo. The text has this: FIG. 1 is a graph of body weight as percent change from baseline vs time (in weeks) for treated and untreated mice in which inflammatory colitis has been induced.
FIG. 2 is a gray-scale rendering of a photograph showing the gross morphology of the intestines for treated and untreated mice in which inflammatory colitis has been induced compared to a normal (control) intestine.
T-Cell-Transfer Colitis Study and Histopathology
After 5-7 weeks, mice were killed and colon tissues were excised. Tissues were fixed in 10% buffered formalin and paraffin embedded. The sections (5 μm) of tissue samples stained with hematoxylin and eosin. All the slides were read and scored by an experienced pathologist without previous knowledge of the type of treatment. The degree of inflammation in the epithelium, submucosa and muscularis propria was scored separately.

In series [7] the test system is IL-8 expression in human basal-like breast cancer cells (BLBCs). The series is described as follows: ELISA assay assessing IL-8 expression in BLBCs. The class given is cell-based. Conditions: read-out: IC50, inhibition of IL-8 expression. As to the method:
ELISA Assay Assessing IL-8 Expression in BLBCs […] The following day upon cells adhesion to the plate bottom, all supernatants were carefully discarded followed by adding test compounds diluted in culturing medium. The test compounds dissolved in DMSO (Sigma-Aldrich Chemical Co., St. […] The final concentration of DMSO was adjusted to 0.05% (v/v). At the end of 24-hour incubation, all supernatants were carefully removed and stored at −80° C. if the subsequent steps would not be performed immediately. The Human IL-8 ELISA Ready-Set-Go! (2nd generation) is used (Catalog No. 88-8086) against the prepared samples. The samples along with the Standard Human IL-8 Recombinant Protein (prepared in duplicates in a 2-fold serial dilution from 250 pg/ml to 2 pg/ml) were incubated overnight for maximal sensitivity. The assay was measured by an absorption reading at 450 nm using EnVision 2104 Multilabel Reader (PerkinElmer, Inc., Waltham, Mass.). Each experiment was performed at least in duplicate and plotted using Prism. The curve fitting equation used was “log(inhibitor) vs. response variable slope (four parameters)”.

Series [8] deals with primary human AML stem- and progenitor cells. Conditions: cited from earlier work.
A further series has as its system HIV-1 transgenic mice. The note with it: model for HIV-associated nephropathy; cited from earlier work.
[9] abbreviates: panel of human BLBC cells MDA-MB-435S, MDA-MB-231, BT-549, MDA-MB-157, HS578T, SUM1315, 24-hour incubation.

Each structure is given as a SMILES string. Where two headings read alike, the source gives them in different places. A value given as a limit tells only on which side of the number the result lay.

Regarding `CC1=C(Nc2ccc3cc(C(=O)O)ccc3c2)CCCC1=O` [Example 01-41, 6((2-methyl-3-oxocyclohex-1-en-1-yl)amino)-2-naphthoic acid], the melting point lay in the range of 259 to 263 °C. In addition, the microsomal CLint at 0.5 μM in [1] is 25 to 250 µL/min/mg. Further, in series [2], the 50% inhibitory concentration (IC50) lay in the range of 1 to 10 µM. For the same compound, the IC50 at BRD4_2 fell in the range of 1 to 10 µM.

Consider `COc1ccc(NC(=O)c2ccc(NC3=C(C)C(=O)CC3)c(Cl)c2)cc1` [Example 04-19, 3-chloro-N-(4-methoxyphenyl)-4-((2-methyl-3-oxocyclopent-1-en-1-yl)amino)benzamide], for which the IC50 is 0.2 to 1 µM in series [3]; under 1 µM in [2]; 1 to 10 µM at BRD4_2; 0.1 to 5 µM in series [4]; 0.1 to 5 µM in series [5] (RAW264.7 cells, LPS, quantitative PCR of mRNA transcript levels, read-out: IC50 in inhibition of transcriptional activation of the cytokines IL-6, IL-1β and TNFα). Moreover, the development of colitis entry in series [6] (CD4+CD45RBhi T cells injected intra-peritoneally into Rag1−/− mice) is on record as “inhibits the development of colitis”. In addition, the “gross morphology of the intestines” value in series [6] (after 5-7 weeks, FIG. 2, treated mice vs disease group) is reported as “gross morphology of the intestines is preserved”. Besides, the “loss of body weight” value in [6] (mice weighed every week, FIG. 1) is “significantly (P<0.05) inhibits the loss of body weight”.

As for `CC1=C(Nc2ccc(C(=O)Nc3ccccc3C)cc2Cl)CCC1=O` [Example 04-20, 3-chloro-4-((2-methyl-3-oxocyclopent-1-en-1-yl)amino)-N-(o-tolyl)benzamide], the IC50 in [3] was 0.2 to 1 µM; in [2] it was under 1 µM; at BRD4_2, 1 to 10 µM; in series [4], 0.1 to 5 µM; in series [5] (RAW264.7, read-out: IC50 in inhibition of transcriptional activation of the cytokines IL-6, IL-1β and TNFα), 0.1 to 5 µM.

In turn, `CC1=C(Nc2cc(NS(=O)(=O)c3ccccc3C)ccc2Cl)CCC1=O` [Example 05-57, N-(4-chloro-3-((2-methyl-3-oxocyclopent-1-en-1-yl)amino)phenyl)-2-methylbenzenesulfonamide] came in with a melting point of 236 to 238 °C. Besides, in series [7] (Homo sapiens, 24 h), the IC50 fell in the range of 0.1 to 1 µM. In [1], the microsomal CLint at 0.5 μM was in the range of 25 to 250 µL/min/mg. Further, in series [2], the IC50 is under 1 µM. At BRD4_2, the IC50 was under 1 µM.

`CC1=C(Nc2cc(NS(=O)(=O)c3ccccc3C)ccc2Cl)CCCC1=O` [Example 05-66, N-(4-chloro-3-((2-methyl-3-oxocyclohex-1-en-1-yl)amino)phenyl)-2-methylbenzenesulfonamide] gave a melting point of 246 to 248 °C. Also, the microsomal CLint at 0.5 μM in series [1] lay in the range of 25 to 250 µL/min/mg. Also, the IC50 in series [2] is under 1 µM. At BRD4_2, the concentration for half-maximal inhibition (IC50) was under 1 µM.

The compound `CC1=C(Nc2ccc(NS(=O)(=O)c3ccccc3C)cc2Cl)CCCC1=O` [Example 05-68, N-(3-chloro-4-((2-methyl-3-oxocyclohex-1-en-1-yl)amino)phenyl)-2-methylbenzenesulfonamide] had a melting point of 248 to 250 °C. For the same compound, the IC50 in series [7] (setting [9]) was in the range of 0.1 to 1 µM. For the same compound, the microsomal CLint at 0.5 μM in [1] was in the range of 25 to 250 µL/min/mg. In addition, in [2], the IC50 was under 1 µM. Besides, at BRD4_2, the IC50 lay within 1 to 10 µM.

`CC1=C(Nc2cccc(NS(=O)(=O)c3ccccc3C)c2Cl)CCCC1=O` [Example 05-70, N-(2-chloro-3-((2-methyl-3-oxocyclohex-1-en-1-yl)amino)phenyl)-2-methylbenzenesulfonamide] came in with a melting point of 185 to 187 °C. In [7] (setting [9]), the IC50 is 0.1 to 1 µM. Besides, in series [1], the microsomal CLint at 0.5 μM lay in the range of 25 to 250 µL/min/mg. The IC50 in [2] was under 1 µM. At BRD4_2, the IC50 is over 10 µM.

On to `Cc1sc2c(c1C)C(c1ccc(Cl)cc1)=N[C@@H](CC(=O)OC(C)(C)C)c1nnc(C)n1-2` [JQ1], for which, in series [8] (all donors), the “apoptosis in CD34+/CD38− and CD34+/CD38+ stem- and progenitor cells” value was “induce apoptosis”. For the same compound, the growth-inhibition and apoptosis result in series [8] (primary human AML stem- and progenitor cells, including relapsed or refractory patients) was “leads to growth-inhibition and apoptosis”.

Consider `COC(=O)C[C@@H]1N=C(c2ccc(Cl)cc2)c2c(sc(C)c2C)-n2c(C)nnc21` [MS417], for which the “inflammation and kidney injury” value with HIV-1 transgenic mice was “effectively ameliorated inflammation and kidney injury”.
